Earlier results in patent EP2074993A1, “Venlafaxine-containing film-coated modified-release tablets” (Biovail Laboratories International S.r.l., priority 2007, dated 2009).

Settings: in vivo

SMILES | elimination half-life
CN(C)CC(c1ccc(O)cc1)C1(O)CCCCC1 (centres unmarked) [O-desmethylvenlafaxine] | about 8 hours
COc1ccc(C(CN(C)C)C2(O)CCCCC2)cc1 (racemic) [Venlafaxine, (R/S)-1-[2-(dimethylamino)-1-(4-methoxyphenyl)ethyl]cyclohexanol] | about 4 hours
